Data from patent US9808434B2, “Compound for treating cancer and diabetes” (CITY OF HOPE, priority 2011, dated 2017).
Entries after “also recorded” stand apart in the source; their conditions may differ.

Tests used:
HL-60 cells [1] = assay: HL-60 apoptosis, Annexin V-PI double staining; assay type: cell-based, human; settings: 3 μM, 48 hours
Procedure: HL-60 (5×10^5) cells were incubated with a test compound (COH-SR4 or COH-SR9), ATRA, or nothing (Control) for 48 hours, washed and harvested. The cells were then fixed and double stained with Annexin V-FITC and propodium iodide (PI) and analyzed by flow cytometry. Conjugation of Annexin V and PI staining was used to identify apoptosis cells (early stage and late stage), normal/viable cells and necrotic cells. The percentage distribution of normal/viable (R3, lower left quadrant), early apoptotic (R4, lower right quadrant), late apoptotic (R2, upper right quadrant) and necrotic cells (R1, upper left quadrant) was calculated using Summit software. The percentages of apoptotic cells after treatment with various doses of each compound are shown in FIGS. 16A-H. Both COH-SR4 and COH-SR9 treatment of HL-60 cells increased the number of early apoptotic and late apoptotic cells in a dose-dependent manner compared with untreated cells. At 3 μM, overall apoptotic cells were ˜60% and 40% for COH-SR4 and COHSR9, respectively.

[2] = system: cyclin D1, cyclin E2, CDK2, CDK4, p21WAF1/Cip1, p27Kip1; assay: HL-60 cell cycle regulatory proteins, Western blot; assay type: cell-based, human; settings: 24 hours, 0.5-3 μM
Procedure: HL-60 cells were treated without or with COH-SR4 or COH-SR9 at a concentration of 0.5 μM, 1 μM, 2 μM, or 3 μM for 24 hours. Then the total cell lysates from the treated cells or untreated cells were resolved under electrophoresis and immunoblotted with antibodies against cyclin D1, cyclin E2, CDK2, CDK4, p21WAF1/Cip1, p27Kip1, and β-actin. β-actin served as an internal control. Densitometric quantitation was performed on each blot and the arbitrary numbers above each band represent the fold increase/decrease compared with untreated control. […] These kinase inhibitors are known to interfere with cell cycle progression to cause phase-specific cycle arrest by perturbing the phosphorylation process through direct interaction with their target proteins (cyclins or CDK).

HL-60 cells [3] = assay: Differentiation of HL-60 cells (Giemsa-Wright, NBT, CD11b/CD14); assay type: cell-based, human; settings: 48 hours; for surface expression of CD11b and CD14: 0.5-3 μM, flow cytometry; for morphologic changes (Giemsa-Wright stain), myeloid differentiation: 2-10 μM
Procedure: HL-60 cells were incubated with a test compound at various concentrations (2˜10 μM), DMSO, or without any test compound for 48 hours, and then examined for morphologic changes by Giemsa-Wright stain. The results were observed microscopically and shown in FIG. 13 at a magnification of ×400. […] Such results were similar to cells treated with DMSO or all-trans retinoic acid (ATRA), wherein DMSO or ATRA terminally differentiated HL-60 cells into myeloid cells (FIG. 13).
HL-60 cells (2.5×10^5) were treated with or without a test compound for 48 hours and then stained with NBT, wherein positively-stained cells appeared as purple black (FIG. 14A). NBT positive cells were counted and the overall percentage was calculated based on 200 total cells counted for each treatment. Three˜four independent experiments were carried out, and data are shown as mean±SE (FIG. 14B). This measurement of “oxidative burst” by the NBT assay is a well-known and extensively tested functional marker of HL-60 cell differentiation.
HL-60 cells (2.5×10^5) were incubated with a test compound (COH-SR4 or COH-SR9) at a concentration of 0.5 μM, 1 μM, 2 μM, or 3 μM, or without any COH-SR compound for 48 hours and then assessed for the surface expression of CD11b (FIG. 14C) and CD14 (FIG. 14D) by flow cytometry, respectively. Three-four independent experiments were carried out, and data are shown as mean±SE (FIGS. 14C and 14D).

AMPK = AMPK activation in Hela cells, Western blot; assay type: cell-based; settings: 1 hour, 1, 3 or 5 μM
Procedure: Activation of AMPK was associated with the phosphorylation of the α-subunit on Thr-172 of as assessed using phospho-specific antibodies (FIGS. 10A-B). AMPK activation also leads to the increased phosphorylation of the target protein acetyl-CoA carboxylase (ACC) (FIG. 10B).
Cells of each cell lines (Hela, HL-60, and 3T3-L1) were treated for 1 hour with a test compound (COH-SR4, COH-SR9, COH-SR16, or COH-SR18) at a concentration of 1 μM, 3 μM, or 5 μM, or AICAR (5-aminoimidazole-4-carboxamideriboside, an AMPK agonist used as positive control) at a concentration of 500 μM, or none of the above (the untreated cells as negative control). Total cell lysates from the untreated cells and the cells treated with a test compound or AICAR were analyzed by Western blot assay using specific antibodies against phospho-AMPK, phospho-ACC, total AMPK and total ACC.

HL-60 cells [4] = assay: HL-60 cell cycle, PI flow cytometry; assay type: cell-based, human; settings: for cells in the S phase: 3 μM, control 47%; for viable cells arrested in G0/G1 phase: 48-hour treatment
Procedure: HL-60 cells (1×10^6) were incubated with a test compound (COH-SR4 or COH-SR9) at various concentrations (0.5˜3 μM) for 48 hours, washed and harvested. The cells were then fixed and stained with propodium iodide (P1) and the DNA content was analyzed by flow cytometry. Results of each figure were from 3-4 independent experiments. The cell number in each cell cycle phase was calculated and expressed as overall percentage (FIG. 15A). The percentage of cells in G0/G1 were measured from 0-48-hour treatment with test compounds (FIG. 15B), data expressed as mean±SE.

HL-60 cells [5] = assay: HL-60 cell viability, MTT assay; settings: for cytotoxicity and cell proliferation: 48 hours, 1-15 μM
Procedure: Three independent experiments were carried out with 3 duplications each, and data are shown as mean±SE.

[6] = system: NCI-60 human tumor cell lines; assay: NCI-60 DTP Human Tumor Cell Line Drug Screening; assay type: cell-based; settings: leukemia, NSCLC, colon, CNS, melanoma, ovarian, renal, prostate, breast lines
Excerpt: Moreover, preliminary data from the NCI-60 DTP Human Tumor Cell Line Drug Screening (http://dtp.nci.nih.gov/branches/btb/ivclsp.html) further confirmed the observations on these COH-SR compounds. […] A value of 100 meant no growth inhibition. A value of 20 meant 80% growth inhibition. A value of 0 meant no net growth over the course of the experiment. A value of −40 meant 40% lethality. A value of −100 meant all cells were dead.

SMILES	overall apoptotic cells (HL-60 cells [1]) [%]	protein levels of CDK inhibitors p21WAF1/Cip1 and p27Kip1 [2]	protein levels of cyclin D1, cyclin E2, CDK2 and CDK4 [2]	superoxide production (NBT-positive cells) (HL-60 cells [3])	surface expression of CD11b and CD14 (HL-60 cells [3])	morphologic changes (Giemsa-Wright stain), myeloid differentiation (HL-60 cells [3])	AMPK activation (AMPK)	cells in the S phase (HL-60 cells [4]) [%]	viable cells arrested in G0/G1 phase (HL-60 cells [4]) [%]	cytotoxicity and cell proliferation (HL-60 cells [5])	IC50 (HL-60 cells [5]; Homo sapiens, HL-60, 48 h) [nM]	IC50 (HL-60 cells [5]; Homo sapiens, HL-60, 72 h) [nM]	activity in NCI-60 screening [6]	IC50 (HL-60 cells [5]; 72 hours incubation) [nM]
O=C(Nc1cc(Cl)cc(Cl)c1)Nc1cc(Cl)cc(Cl)c1 [COH-SR4, 1,3-bis(3,5-dichlorophenyl) urea]	~60	upregulated	dose-dependent reduction in the protein levels of cyclin D1, cyclin E2, CDK2 and CDK4	Induced Superoxide Production	dose-dependent increase in expression of both CD11 b and CD14	exhibited cytoplasmic vacuolation, reduced nucleus-to-cytoplasmic ratio, and absence of prominent nucleoli	highest potency; also recorded: Dose-dependent AMPK activation	10	85	exhibited cytotoxicity and prevented cell proliferation of HL-60 leukemia cells	< 5000	~1700	active against	–
Cc1c(Cl)cc(NC(=O)Nc2cc(Cl)cc(Cl)c2)c(O)c1Cl [COH-SR9, 1-(3,5-dichlorophenyl)-3-(3,5-dichloro-2-hydroxy-4-methyphenyl) urea]	40	upregulated	dose-dependent reduction in the protein levels of cyclin D1, cyclin E2, CDK2 and CDK4	Induced Superoxide Production	dose-dependent increase in expression of both CD11 b and CD14	exhibited cytoplasmic vacuolation, reduced nucleus-to-cytoplasmic ratio, and absence of prominent nucleoli	Dose-dependent AMPK activation	13	85	exhibited cytotoxicity and prevented cell proliferation of HL-60 leukemia cells	–	–	active against	~2500
